How the values were obtained:
Assay in all cases: relative viability (nuclei count vs DMSO), 5 days (fraction); higher = more cells survive
[1] = compound: COc1ncc(-c2ccc3nccc(-c4ccnnc4)c3c2)cc1NS(=O)(=O)c1ccc(F)cc1F [Omipalisib]
Outline: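 Hoechst staining, done together with fixation and permeabilisation, marked nuclei for 4× imaging and MetaXpress counting. This followed 5 days without medium change after lung cancer cell lines, kept overnight at 37 °C in 1536-well plates, were pinned with five library-drug doses (not always all listed) spaced by √10 on vehicle-anchored plates. Viability is the ratio of treated-well to vehicle-well nuclei, expressed as a median across plates. Plates passed only at control CV below 25% with at least one doubling.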

[2] = compound: COc1ncc(-c2ccc3nccc(-c4ccnnc4)c3c2)cc1NS(=O)(=O)c1ccc(F)cc1F [Omipalisib] + CC1(C)CCC(c2ccc(Cl)cc2)=C(CN2CCN(c3ccc(C(=O)NS(=O)(=O)c4ccc(N[C@H](CCN5CCOCC5)CSc5ccccc5)c(S(=O)(=O)C(F)(F)F)c4)cc3)CC2)C1 [Navitoclax] (partner 0.5 µM)
Outline: (§1)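 Relative viability divides the nuclei count in treated wells by that in vehicle wells. Lung cancer cell lines were seeded in 1536-well plates, dosed by pin tool the next day, and fixed and stained after 5 days in one step with final 0.05% Triton X-100, 1% formaldehyde and 1 ug/ml Hoechst. Dosing was a single drug or a fixed anchor-drug dose plus five library-drug doses (not always all listed) in √10 steps, and values are medians of duplicate plates imaged at 4×.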

[3] = compound: COc1ncc(-c2ccc3nccc(-c4ccnnc4)c3c2)cc1NS(=O)(=O)c1ccc(F)cc1F [Omipalisib] + Cc1nc(NC(=O)N2CCC[C@H]2C(N)=O)sc1-c1ccnc(C(C)(C)C(F)(F)F)c1 [Alpelisib] (partner 2 µM)
Outline: as §1

[4] = compound: COc1ncc(-c2ccc3nccc(-c4ccnnc4)c3c2)cc1NS(=O)(=O)c1ccc(F)cc1F [Omipalisib] + C[C@@H](Oc1cc(-c2cnn(C3CCNCC3)c2)cnc1N)c1c(Cl)ccc(F)c1Cl [Crizotinib] (partner 1 µM)
Outline: as §1

[5] = compound: COc1ncc(-c2ccc3nccc(-c4ccnnc4)c3c2)cc1NS(=O)(=O)c1ccc(F)cc1F [Omipalisib] + CC(C)C[C@H](NC(=O)[C@H](Cc1ccccc1)NC(=O)c1cnccn1)B(O)O [Bortezomib] (partner 0.002 µM)
Outline: as §1

[6] = compound: COc1ncc(-c2ccc3nccc(-c4ccnnc4)c3c2)cc1NS(=O)(=O)c1ccc(F)cc1F [Omipalisib] + O=C(c1cc(Cc2n[nH]c(=O)c3ccccc23)ccc1F)N1CCN(C(=O)C2CC2)CC1 [Olaparib] (partner 8 µM)
Outline: as §1

[7] = compound: COc1ncc(-c2ccc3nccc(-c4ccnnc4)c3c2)cc1NS(=O)(=O)c1ccc(F)cc1F [Omipalisib] + CS(=O)(=O)CCNCc1ccc(-c2ccc3ncnc(Nc4ccc(OCc5cccc(F)c5)c(Cl)c4)c3c2)o1 [Lapatinib] (partner 2 µM)
Outline: as §1

[8] = compound: COc1ncc(-c2ccc3nccc(-c4ccnnc4)c3c2)cc1NS(=O)(=O)c1ccc(F)cc1F [Omipalisib] + CS(=O)(=O)N1CCN(Cc2cc3nc(-c4cccc5[nH]ncc45)nc(N4CCOCC4)c3s2)CC1 [Pictilisib] (partner 1 µM)
Outline: as §1

[9] = compound: COc1ncc(-c2ccc3nccc(-c4ccnnc4)c3c2)cc1NS(=O)(=O)c1ccc(F)cc1F [Omipalisib] + C[C@]1(O)C[C@@H](c2nc(-c3ccc4ccc(-c5ccccc5)nc4c3)c3c(N)nccn32)C1 [Linsitinib] (partner 1 µM)
Outline: as §1

[10] = compound: COc1ncc(-c2ccc3nccc(-c4ccnnc4)c3c2)cc1NS(=O)(=O)c1ccc(F)cc1F [Omipalisib] + COc1cc2c(Oc3ccc(NC(=O)C4(C(=O)Nc5ccc(F)cc5)CC4)cc3F)ccnc2cc1OCCCN1CCOCC1 [Foretinib] (partner 0.25 µM)
Outline: as §1

[11] = compound: COc1ncc(-c2ccc3nccc(-c4ccnnc4)c3c2)cc1NS(=O)(=O)c1ccc(F)cc1F [Omipalisib] + N=C(N)NC(=N)NCCc1ccccc1 [Phenformin] (partner 250 µM)
Outline: as §1

[12] = compound: COc1ncc(-c2ccc3nccc(-c4ccnnc4)c3c2)cc1NS(=O)(=O)c1ccc(F)cc1F [Omipalisib] + COc1cccc2cc(-c3nc([C@H]4CC[C@H](C(=O)O)CC4)n4ncnc(N)c34)[nH]c12 [OSI-027] (partner 0.5 µM)
Outline: as §1

[13] = compound: COc1ncc(-c2ccc3nccc(-c4ccnnc4)c3c2)cc1NS(=O)(=O)c1ccc(F)cc1F [Omipalisib] + CCNC(=O)c1noc(-c2cc(C(C)C)c(O)cc2O)c1-c1ccc(CN2CCOCC2)cc1 [Luminespib] (partner 0.01 µM)
Outline: as §1

[14] = compound: COc1ncc(-c2ccc3nccc(-c4ccnnc4)c3c2)cc1NS(=O)(=O)c1ccc(F)cc1F [Omipalisib] + Nc1nc2[nH]cc(CCc3ccc(C(=O)N[C@@H](CCC(=O)O)C(=O)O)cc3)c2c(=O)[nH]1 [Pemetrexed] (partner 0.2 µM)
Outline: as §1

[15] = compound: COc1ncc(-c2ccc3nccc(-c4ccnnc4)c3c2)cc1NS(=O)(=O)c1ccc(F)cc1F [Omipalisib] + Cc1nc(Nc2ncc(C(=O)Nc3c(C)cccc3Cl)s2)cc(N2CCN(CCO)CC2)n1 [Dasatinib] (partner 0.075 µM)
Outline: as §1

Cell Line: NCI-H1299
- relative viability ([1]; 0.0003 µM): 1.06
- relative viability ([1]; 0.003 µM): 1.1
- relative viability ([1]; 0.03 µM): 1.02
- relative viability ([2]; first compound 0.0003 µM): 1.09
- relative viability ([2]; first compound 0.003 µM): 1.05
- relative viability ([2]; first compound 0.03 µM): 1.05
- relative viability ([3]; first compound 0.0003 µM): 1.12
- relative viability ([3]; first compound 0.003 µM): 1.13
- relative viability ([3]; first compound 0.03 µM): 1.06
- relative viability ([4]; first compound 0.0003 µM): 0.986
- relative viability ([4]; first compound 0.003 µM): 1.03
- relative viability ([4]; first compound 0.03 µM): 0.967
- relative viability ([5]; first compound 0.0003 µM): 1.03
- relative viability ([5]; first compound 0.003 µM): 1.08
- relative viability ([5]; first compound 0.03 µM): 1.12
- relative viability ([6]; first compound 0.0003 µM): 1.05
- relative viability ([6]; first compound 0.003 µM): 1.01
- relative viability ([6]; first compound 0.03 µM): 0.902
- relative viability ([7]; first compound 0.0003 µM): 1.01
- relative viability ([7]; first compound 0.003 µM): 0.994
- relative viability ([7]; first compound 0.03 µM): 1.02
- relative viability ([8]; first compound 0.0003 µM): 0.778
- relative viability ([8]; first compound 0.003 µM): 0.612
- relative viability ([8]; first compound 0.03 µM): 0.624
- relative viability ([9]; first compound 0.0003 µM): 0.95
- relative viability ([9]; first compound 0.003 µM): 1.01
- relative viability ([9]; first compound 0.03 µM): 0.909
- relative viability ([10]; first compound 0.0003 µM): 1.13
- relative viability ([10]; first compound 0.003 µM): 1.17
- relative viability ([10]; first compound 0.03 µM): 1.12

Cell Line: NCI-H1563
- relative viability ([1]; 0.0003 µM): 0.87
- relative viability ([1]; 0.003 µM): 0.801
- relative viability ([1]; 0.03 µM): 0.577
- relative viability ([11]; first compound 0.0003 µM): 0.639
- relative viability ([11]; first compound 0.003 µM): 0.579
- relative viability ([11]; first compound 0.03 µM): 0.535
- relative viability ([3]; first compound 0.0003 µM): 0.756
- relative viability ([3]; first compound 0.003 µM): 0.841
- relative viability ([3]; first compound 0.03 µM): 0.587
- relative viability ([4]; first compound 0.0003 µM): 0.698
- relative viability ([4]; first compound 0.003 µM): 0.796
- relative viability ([4]; first compound 0.03 µM): 0.609
- relative viability ([5]; first compound 0.0003 µM): 0.756
- relative viability ([5]; first compound 0.003 µM): 0.667
- relative viability ([5]; first compound 0.03 µM): 0.7
- relative viability ([7]; first compound 0.0003 µM): 0.747
- relative viability ([7]; first compound 0.003 µM): 0.848
- relative viability ([7]; first compound 0.03 µM): 0.747
- relative viability ([8]; first compound 0.0003 µM): 0.575
- relative viability ([8]; first compound 0.003 µM): 0.67
- relative viability ([8]; first compound 0.03 µM): 0.694
- relative viability ([9]; first compound 0.0003 µM): 0.844
- relative viability ([9]; first compound 0.003 µM): 0.992
- relative viability ([9]; first compound 0.03 µM): 0.77
- relative viability ([12]; first compound 0.0003 µM): 0.759
- relative viability ([12]; first compound 0.003 µM): 0.583
- relative viability ([12]; first compound 0.03 µM): 0.602
- relative viability ([10]; first compound 0.0003 µM): 0.841
- relative viability ([10]; first compound 0.003 µM): 0.806
- relative viability ([10]; first compound 0.03 µM): 0.585
- relative viability ([13]; first compound 0.0003 µM): 0.557
- relative viability ([13]; first compound 0.003 µM): 0.515
- relative viability ([13]; first compound 0.03 µM): 0.445
- relative viability ([14]; first compound 0.0003 µM): 0.714
- relative viability ([14]; first compound 0.003 µM): 0.616
- relative viability ([14]; first compound 0.03 µM): 0.462
- relative viability ([15]; first compound 0.0003 µM): 0.484
- relative viability ([15]; first compound 0.003 µM): 0.442
- relative viability ([15]; first compound 0.03 µM): 0.354
